Experimental data: patent US7666619B2, “Compounds and methods for regulating bacterial growth and pathogenesis” (Princeton University, priority 2000, dated 2010)
Converted amounts (≈) assume the structure as drawn. “Also recorded” adds a separate entry of the source. Read-outs that look alike come from different tables or passages of the source.

Experiments:
[1] = test system: V. harveyi reporter strain BB170 (Sensor 1−, Sensor 2+); test: V. harveyi luminescence assay, test strain BB170 (AI-2 bioassay); assay type: cell-based, Vibrio harveyi; settings: for signaling activity (induction of luminescence): control experiments, reporter strain BB170
Method: FIG. 16 panels C and D show the effect of the same compounds on control strain JAF78. Strain BB170 synthesizes AI-2 starting at 4.5 hours into the assay. Light produced at the start of the assays is from AI-2 carried over from cells diluted from stationary phase. Strain JAF78 is a mutant strain in which light production is “locked on” and is unaffected by the presence or absence of autoinducer. Increase in light over the time course reflects increase in cell population density.
Density-dependent Bioluminescence Assay. […] The cell density was measured by diluting the same aliquots of cells used for measuring luminescence, spreading the dilutions onto solid LM medium, incubating the plates overnight at 30° C., and counting the resulting colonies the following day. Relative Light Units are (counts min^−1 ml^−1×10^3)/(colony forming units ml^−1). Cell-free culture supernatants from V. harveyi or S. typhimurium strains were added to a final concentration of 10% (v/v) at the time of the first measurement. In control experiments, 10% (v/v) of AB medium, LB medium or LB medium containing 0.5% glucose was added instead of cell-free culture fluids.
Assay for Production of Signaling Molecules. Cell-free culture fluids from E. coli, S. typhimurium and V. harveyi strains were tested for the presence of signaling substances that could induce luminescence in the V. harveyi reporter strain BB170 or BB886. In the assays, 10 μl of cell-free culture fluids from E. coli AB1157, E. coli DH5α, and S. typhimurium LT2 strains grown and harvested as described above were added to 96-well microtiter dishes. The V. harveyi reporter strain BB170 or BB886 was grown for 16 h at 30° C. with aeration in AB medium, diluted 1:5000 into fresh AB medium, and 90 μl of the diluted cells were added to the wells containing the E. coli and S. typhimurium cell-free culture fluids. Positive control wells contained 10 μl of cell-free culture fluid from strain V. harveyi BB152 (Autoinducer-1^−, Autoinducer-2^+) or V. harveyi BB120 (Autoinducer-1^+, Autoinducer-2^+). Negative control wells contained 10 μl of sterile growth medium. The microtiter dishes were shaken in a rotary shaker at 175 rpm at 30° C.
Bioluminescence Assay. […] Cell-free culture fluids from V. harveyi, E. coli, or S. typhimurium strains to be tested for AI-2 activity were prepared as described above, and assayed at 10% (v/v). AI-2 activity is reported as the fold-induction of the reporter strain over background, or as the percent of the activity obtained from V. harveyi BB120 (wild type) cell-free culture fluid.

[2] = test system: sensor-1+, sensor-2− mutant (BB886); test: Microtiter luminescence assay with AI-1 and strain BB886; assay type: cell-based, Vibrio harveyi; settings: non self-stimulating strain BB886
[3] = test system: V. harveyi strains MM32, BB120, BB170; test: Microtiter crystal violet biofilm formation assay; assay type: cell-based, Vibrio harveyi; settings: null mutant (AI-1−/AI-2−) V. harveyi
Method: Biofilm formation was measured using a microtiter-based assay. Free-swimming (planktonic) bacteria were cultured in AB or LB media supplemented with glucose in 96 well microtiter dishes. Biofilms typically formed along the walls of the wells at the interface of the liquid and air phase. At the end of the incubation, aliquots of a crystal violet solution (stock 0.1%) were added to the wells to stain both the adherent and the non-adherent cells. The wells were then washed with deionized water to remove non-adherent cells, and the bound crystal violet solubilized with 200 microliters of water. Absorbance reading at 600 nm (A600) were used to quantitate the amount of crystal violet dye that had adhered to the biofilms. When indicated, synthetic AI-2 was added to the wells at the beginning of the cultures.
Various amounts of synthetic AI-2 were added to the initial free-swimming bacterial cultures in LB media supplemented with glucose, and biofilm formation measured at the end of the incubation.

[4] = test system: CAMP expression by S. pyogenes 19615; test: CAMP assay (S. aureus 25923 streak, S. pyogenes 19615 streaks, sheep blood agar); assay type: cell-based, Streptococcus pyogenes
Method: The horizontal streak is S. aureus 25923 and the vertical streaks are S. pyogenes 19615. Filter disks containing either DMSO no drug control or compound QXP031 were applied to plates and incubated anaerobically overnight at 37° C.
Many streptococci produce a diffusible extracellular protein (CAMP) that acts synergistically with staphylococcal beta lysin to lyse erythrocytes on trypticase soy agar plates containing sheep blood. Hemolysis of erythrocytes is an important component of the virulence response in many pathogenic bacteria. A single straight streak of a beta lysin producing S. aureus strain is made. Steptococci to be tested are streaked perpendicular to the S. aureus streak.

[5] = test system: AI-2 mediated luciferase expression in V. harveyi; test: V. harveyi bioassay, tester and control strains, bioluminescence intensity; assay type: cell-based, Vibrio harveyi
Method: The results are normalized to cell count and control strain.
The inhibition of an AI-2 mediated response was further measured in the V. harveyi bioassay. Compound QXP031 was tested against V. harveyi tester and control strains. […] The results are normalized to cell count and any minimal effects seen in the control strain. The fold difference in bioluminescence intensity at the different drug concentrations versus no drug control is indicated above the appropriate bars in FIG. 21.

[6] = test system: S. pyogenes 19615 proteolytic activity; test: Skim milk plate proteinase assay; assay type: cell-based, Streptococcus pyogenes; settings: filter disk, anaerobic overnight 37° C.
Method: Skim milk containing plates were overlaid with top agar containing S. pyogenes 19615. Filter disks containing either DMSO no compound control or compound QXP031 were applied to plates and incubated anaerobically overnight at 37° C.
Proteinase activity is an important component of the virulence response in many pathogenic bacteria. Skim milk containing agar plates can be used to score for proteinase activity in a variety of bacteria. Proteolytic activity is scored as a clearing zone surrounding a test inoculum. The clearing zone is the result of the proteolytic breakdown of the milk proteins suspended in the agar plates. Regions where milk protein is not broken retain a milky opaque appearance.

[7] = test system: Streptococcus pyogenes ATCC 19615; test: Antibiotic susceptibility assay (NCCLS broth microdilution); assay type: cell-based; settings: for MIC: Streptococcus pyogenes, ATCC19615
Method: (§1) Antimicrobial susceptibility testing was conducted according to the National Committee for Clinical Laboratory Standards (NCCLS) reference method “Broth Dilution Procedure (Microdilution)” published January 1977 (UPDATE VERSION). The method yields a minimum inhibitory dose (MIC) required for complete inhibition of bacterial growth. MICs were determined using a dilution series of antibiotic, in which all of the wells contained a constant concentration of the inhibitor compound was maintained. In addition, before the instant susceptibility tests were performed, the inhibitor compounds were tested in the appropriate inhibitor screens (See, for example, FIG. 32 for the AI-2 inhibitor 2-ethyl-4-hydroxy-5-methyl-3(2H)-furanone). […] Experiments were conducted in 96 well microtiter plates using a final volume of 0.1 ml/well. Assays were conducted using either Mueller-Hinton broth, Todd-Hewitt broth, or Nutrient Broth (Difco). The bacterial innoculum was prepared from a log phase overnight culture of Streptococcus pyogenes ATCC 19615 or Staphylococcus aureus ATCC 25923. Turbidity of the cultures was adjusted with saline to 0.05 McFarland standard (10^7 CFU/ml), and 5 microliters of this innoculum was added to each well. The inhibitor compounds were prepared by dissolving a stock solution in water. Working stocks of quorum inhibitors compounds were made by diluting the stock solutions with bacterial broth. Sodium salts of the antibiotics were used in these experiments. A stock solution (10 mg/ml) was prepared as stipulated by the manufacturer by dissolving a weighed amount of antibiotic in water or DMSO. All antibiotics were added in two-fold serial dilutions to a series of wells to yield final concentrations ranging from 100 μg/ml to 0.1 μg/ml. The single exception was sulfisoxazole where the range of final doses ranged from 300 μg/ml to 2.5 μg/ml. Bacterial broth was used as the diluent. The range of antibiotic concentrations used were chosen to be at and below the MIC for the antibiotic alone. Cultures were sealed and incubated for 20 hours at 37° C. MIC values were determined by spectrophotometric measurements of absorbance at 600 nm. […] Fold-changes in MIC concentration were determined by comparing the MIC for antibiotic and quorum inhibitor compounds with the MIC measured using antibiotic alone.

[8] = test system: Streptococcus pyogenes ATCC 19615; test: Cell growth monitored by absorbance at 600 nm; assay type: cell-based; settings: 2.4 μg/ml or 2.5 mg/ml
Method: Streptococcus pyogenes ATCC 19615 was grown in the presence of either 2.4 μg/ml or 2.5 mg/ml of compound QXP-035. Cell growth was monitored by taking periodic measurements of absorbance at 600 nm.

[9] = test system: MM32 indicator strain (LuxS−, LuxN−) of V. harveyi; test: MM32 bioluminescence assay; assay type: cell-based, Vibrio harveyi; settings: autoinducer-2 25 μg/ml, QXP-048 25 μg/ml
Method: The MM32 indicator strain (LuxS−, LuxN−) of V. harveyi was incubated with various doses of AI-2 and the bioluminescence signal measured at various time points during a 6-hour incubation.
Exogenous synthetic autoinducer-2 was added at the outset of the assay at a final concentration of 25 μg/ml. QXP-048 was added at the outset of the assay at a final concentration of 25 μg/ml. […] Exogeneous synthetic autoinducer-2 was added at the outset of the assay to a final concentration of 25 μg/ml. QXP-048 was added at the outset of the assay at a final concentration of 25 μg/ml.
The invention provides a luxN− and luxS− strain of V. harveyi, designated MM32, for identifying inhibitors of the quorum-sensing pathway. […] Further, since MM32 cannot produce AI-2, addition of exogenous AI-2 or its analogs allows rapid identification of inhibitors of AI-2.

[10] = test system: Staphylococcus aureus ATCC 25923; test: Antibiotic susceptibility assay (NCCLS broth microdilution); assay type: cell-based; settings: with 2-ethyl-4-hydroxy-5-methyl-3(2H)-furanone at 25 μg/ml
Method: as §1

AI-2 = test: Inhibition of AI-2 initiated activation of a biochemical pathway
Source text: It is an object of the invention to provide compounds and methods for regulating the activity of autoinducer-2 receptors such as LuxP or LuxQ. Compounds of the invention include those that interact with LuxP or LuxQ. Specifically, the invention provides a method for the regulation of LuxP or LuxQ protein resulting in the regulation of bacterial cell growth or the regulation of bacterial pathogenicity by regulating the expression of a factor associated with bacterial virulence. The method of the invention envisions contacting LuxP or LuxQ with pentenomycin, or derivatives thereof, such that LuxP or LuxQ activity is regulated. Pentenomycin has previously been identified as having antibiotic activity. […] The chemical structure of pentenomycin, and derivatives thereof (see below), is/are similar to that of the structure of autoinducer-2 as identified in the present study.

O=C(O)CCC(=O)C(=O)O [-ketoglutarate]
signaling activity (induction of luminescence) [1]: lacked activity

C[C@@H](O)CC(=O)N[C@H]1CCOC1=O [AI-1, N-(3-hydroxybutanoyl)-L-homoserine lactone, reference compound]
lowest concentration to which the assay was sensitive [2]: 100 nM
biofilm production after addition to the medium [3]: allows (AI-1−/AI-2−) V. harveyi to produce biofilm

OC[C@H]1OC(O)[C@H](O)[C@@H](O)[C@@H]1O (stereo partly shown) [Glucose]
signaling activity (induction of luminescence) [1]: lacked activity

CC(=O)O[C@H]1C=CC(=O)C1 [QXP031, (R)-4-acetoxy-cyclopent-2-eneone]
CAMP score [4]: negative CAMP score
hemolysis in CAMP assay ([4]; filter disk, anaerobic overnight 37° C.): complete inhibition of hemolysis
effect on AI-2 mediated luciferase expression ([5]; at the concentrations indicated in FIG. 21): specifically inhibited
specific decrease in bioluminescence as a result of AI-2 inhibition ([5]; various concentrations, normalized to cell count and control strain): up to 15000 fold
proteolysis of milk protein [6]: inhibition of S. pyogenes proteolytic activity; also recorded: proteolysis was inhibited

CCC1OC(C)=C(O)C1=O (stereo not shown) [QXP-035, 2-ethyl-4-hydroxy-5-methyl-3(2H)-furanone]
MIC ([7]; compound alone, read-out: MIC): > 100 µg/mL
effect on cell growth [8]: did not inhibit cell growth
effect on AI-2-dependent bioluminescence ([1]; BB170, various amounts, monitored over time): inhibition of bioluminescence

COC1(c2ccccc2)OC=C(c2ccccc2)C1=O (stereo not shown) [QXP-048, 2-methoxy-2,4-diphenyl-3(2H)furanone]
effect on signal from exogenous synthetic autoinducer-2 [9]: inhibitory capability

CC(=O)O [acetate]
signaling activity (induction of luminescence) [1]: lacked activity

CC1(C)S[C@@H]2[C@H](NC(=O)[C@H](N)c3ccccc3)C(=O)N2[C@H]1C(=O)O [ampicillin]
MIC of antibiotic combined with quorum inhibitor [10]: 0.4 µg/mL

N[C@H]1CCOC1=O [homoserine lactone]
signaling activity (induction of luminescence) [1]: lacked activity

O=C1C=C[C@H](O)[C@@]1(O)CO [pentenomycin]
effect on AI-2 initiated activation of a biochemical pathway (AI-2): acts as an inhibitor

Cc1noc(NS(=O)(=O)c2ccc(N)cc2)c1C [sulfisoxazole]
synergy in combination with 2-ethyl-4-hydroxy-5-methyl-3(2H)-furanone [7]: marked synergies
MIC ([7]; compound alone, read-out: MIC): ~300 µg/mL (≈ 1120 µM)
MIC of antibiotic combined with quorum inhibitor ([7]; with 2-ethyl-4-hydroxy-5-methyl-3(2H)-furanone at 100 micrograms per milliliter): approximately 100 μg/ml

CN[C@H](CC(C)C)C(=O)N[C@H]1C(=O)N[C@@H](CC(N)=O)C(=O)N[C@H]2C(=O)N[C@H]3C(=O)N[C@H](C(=O)N[C@H](C(=O)O)c4cc(O)cc(O)c4-c4cc3ccc4O)[C@H](O)c3ccc(c(Cl)c3)Oc3cc2cc(c3O[C@@H]2O[C@H](CO)[C@@H](O)[C@H](O)[C@H]2O[C@H]2C[C@](C)(N)[C@H](O)[C@H](C)O2)Oc2ccc(cc2Cl)[C@H]1O [vancomycin]
synergy in combination with 2-ethyl-4-hydroxy-5-methyl-3(2H)-furanone [7]: marked synergies
MIC [7]: ~100 µg/mL (≈ 69 µM)
MIC of antibiotic combined with quorum inhibitor ([7]; with 2-ethyl-4-hydroxy-5-methyl-3(2H)-furanone at 5 μg/ml, compared with vancomycin alone): approximately the same MIC
MIC of antibiotic combined with quorum inhibitor ([7]; with 2-ethyl-4-hydroxy-5-methyl-3(2H)-furanone at 12.5 μg/ml): approximately 1.6 micrograms/milliliter
MIC of antibiotic combined with quorum inhibitor ([7]; with 2-ethyl-4-hydroxy-5-methyl-3(2H)-furanone at 50 μg/ml, compared with 12.5 μg/ml): the same MIC
